The values below come from patent US11844754B2, “Methods for treatment of Parkinson's disease” (NeuroDerm, Ltd., priority 2020, dated 2023).

Series [1] can be described thus: Dose proportionality of SC LD/CD, clinical trial ND0612-001 (Example 2a). The settings on record: 24 hour continuous SC infusion of LD (6% w/w)/CD (1.4% w/w) at 80, 120, 160, 200, 240 μl/h. It counts as in vivo, healthy male subjects (human). How it is done: Subjects were administered with a composition comprising LD (6% w/w)/CD (1.4% w/w) by way of a 24 hour continuous infusion at varying infusion rates: • Group 1: 80 μl/h • Group 2: 120 μl/h • Group 3: 160 μl/h • Group 4: 200 μl/h • Group 5: 240 μl/h Several PK parameters were derived for both LD and CD in the dose proportionality assessment, including AUC (hr*ng/mL), Cmax (ng/mL), C15 (ng/mL), and C24 (ng/mL).

Another series in a line: in vivo. The settings on record: for AUC: female, pig, in vivo, sc, 600 mg, SC treatment AUC (G1) Actual. How it is done:
The objective of this study was to determine the pharmacokinetics (PK) of levodopa (LD) in domestic pigs following continuous subcutaneous (SC) infusion of a levodopa prodrug, exemplified using LD-Tyr, administered concomitantly with oral Levodopa.
Table 3 provides the LD-Tyr formulation tested in this study: […]
The study consisted of 3 dosing sessions in which 5 female pigs (Swine/Landrace×large White, ˜40-50 kg each) were treated with the LD-Tyr solution of Table 3 and/or Sinemet IR oral tablets (CD/LD 25/100 mg tablet) in a cross-over design with up to 4-day washout period between dosing sessions, as detailed in the following tables:
As presented in Tables 4 and 5 above, the study included the following three test groups: • G1—received only SC LD-Tyr (600 mg total daily dose); • G2—received only oral LD (300 mg total daily dose); and • G3—received both SC LD-Tyr (600 mg total daily dose) and oral LD (200 mg total daily dose). Pharmacokinetics Blood Collection
Blood samples for the determination of LD-Tyr (in groups 1 and 3), as well as LD and CD plasma levels (in all groups) were collected from the pigs at the following timepoints: • 0 (pre-dose), 30 min, 1 h, 2 h, 3 h, 4 h, 4.5 h, 5 h, 6 h, 7 h, 8 h, 8.5 h, 9 h, 10 h, 11 h, 13 h, 15 h 18 h following treatment initiation. In case of pump occlusion (groups 1 and 3) resulting in infusion cessation, no further blood samples will be collected. Tablets were administrated before blood collection (time 0, 4 and 8 h). Bioanalysis
Plasma samples were analyzed for concentration of LD-Tyr (groups 1 and 3), as well as LD and CD (for all groups) using a qualified LC-MS/MS analytical method.
PK parameters (at least Cmax, tmax, t1/2, AUC) for LD-Tyr, LD and CD were calculated by noncompartmental methods using appropriate software (e.g. Phoenix® WinNonlin®). Individual and mean was calculated for quantitative parameters.
The LD exposure obtained from the SC infusion is considered to be the baseline.

A short description of series [2]: Plasma exposure of LD and CD after SC infusion, oral IR tablet, and SC + oral coadministration (crossover, Example 1). It counts as in vivo, healthy subjects (human). The conditions noted are these: for 1. Treatment A AUC (0-8) × 0.853* / AUC(0-t): human; for 1. Treatment A AUC (0-8) × 0.853*: sc. An excerpt: A test was run in order to assess the plasma exposure of levodopa (LD) following the coadministration of LD and carbidopa (CD) in both subcutaneous (SC) and oral administrations. Accordingly, results obtained from a combined SC+oral administration were compared to results obtained from SC administration alone and from oral administration alone. An additive plasma exposure and PK profile was expected, i.e., it was expected that the SC+oral coadministration would provide results equal to the additive results of the SC and oral administrations, when each was administered separately.
16 healthy subjects (18-50 years) were treated in a crossover manner, i.e., sequentially, with a washout period of 6 days between the following two treatments:
Treatment A: A total dose of 180/22.5 mg LD/CD (formulation A) was administered by SC infusion over the course of 8 hours, at a steady infusion rate.
Treatment B: An immediate release (IR) tablet of 100/25 mg LD/CD was administered orally at time 0 h.
Following a 32 hour washout period, the same 16 healthy subjects were administered with LC/CD both orally and subcutaneously according to the following treatment:
Treatment C: A dose of 153.6/19.2 LD/CD (formulation A) was administered by SC infusion over the course of 8 hours, at a steady infusion rate, combined with a single co-administration of an oral IR LD/CD 100/25 mg tablet, 4 hours after the initiation of the infusion. Total LD/CD dose: 253.6/44.2 mg.
Blood samples were collected at the following time points:
Treatment A: 0 (prior to treatment initiation), 0.5 h, 1 h, 2 h, 3 h, 4 h, 5 h, 5.5 h, 6 h, 7 h, 8 h (prior to the end of the infusion).
Treatment B: 0 (prior to treatment initiation), 0.5 h, 1 h, 2 h, 3 h, 4 h.
The normalized AUC0-8 of LD and CD of Treatment C, resulting from the combined SC and oral treatment, as described above, was calculated and compared to the sum of the normalized LD and CD AUCs obtained from Treatment A (AUC0-8 resulting from 8 h SC infusion) and Treatment B (AUC0-4 resulting from one IR oral tablet).

A short description of series [3]: Plasma carbidopa Cmax after SC administration of several carbidopa doses, clinical trial ND0612-005a and ND0612-005b (Example 2b). It counts as in vivo, subjects (human). The conditions noted are these: SC over 24 hours; 60 mg/ml levodopa with 7.5, 6 or 4 mg/ml carbidopa; 17.9, 26.9, 33.6 mg/24 h carbidopa. How it is done:
In a separate clinical trial (ND0612-005a and ND0612-005b, open label design studies), the plasma carbidopa levels were tested in view of the subcutaneous administration of several carbidopa doses. Three formulations, comprising 60 mg/ml levodopa and (a) 7.5 mg/ml; (b) 6 mg/ml; or 4 mg/ml of carbidopa, were administered to three groups of subjects over the course of 24 hours, providing a total of 17.9 mg/24 h carbidopa to each subject in the first group, 26.9 mg/24 h carbidopa to each subject in the second group and 33.6 mg/24 h carbidopa to each subject in the third group.

Like-named read-outs stand apart in the source and are kept apart here.

Consider `N[C@@H](Cc1ccc(O)c(O)c1)C(=O)O` [LD, L-3,4-dihydroxyphenylalanine], for which the “dose proportionality of PK parameters (AUC, Cmax, C15, C24)” value in series [1] is recorded as “demonstrated dose proportionality”. Also, the AUC – broadly, the area under the concentration-time curve, a measure of exposure – was determined as 17600 ng·h/mL in “in vivo” (Landrace x large White) and 18000 ng·h/mL in the series “in vivo” (plasma LD AUC, pigs, SC LD-Tyr/CD 600/26 mg over 8 hrs only, individual animals). For the same compound, in the series “in vivo” (pigs, SC LD-Tyr/CD + oral LD/CD), the “increase of LD plasma exposure by oral add-ons on top of SC administration, versus predicted (average)” value was “over 50%”. Moreover, the “1. Treatment A AUC (0-8) × 0.853*” value in series [2] (in vivo) turned out to be 2412. The AUC(0-t) was 4770 ng·h/mL in series [2] (in vivo, plasma LD, formulation A 153.6/19.2 LD/CD SC infusion over 8 h + oral IR LD/CD 100/25 mg tablet at 4 h, individual subjects, read-out: 4. Treatment C AUC (0-8) [Observed]); 2310 ng·h/mL in series [2] (in vivo, plasma LD, formulation A 180/22.5 mg LD/CD SC infusion over 8 h, AUC multiplied by 0.853 to equal SC dose of Treatment C, individual subjects, read-out: 1. Treatment A AUC (0-8) × 0.853*); 1420 ng·h/mL in series [2] (in vivo, plasma LD, oral IR tablet 100/25 mg LD/CD at 0 h, individual subjects, read-out: 2. Treatment B AUC (0-4)); 3090 ng·h/mL in series [2] (plasma LD, formulation A 180/22.5 mg LD/CD SC infusion over 8 h, AUC multiplied by 0.853 to equal SC dose of Treatment C, individual subjects, read-out: 1. Treatment A AUC (0-8) × 0.853*). In series [2] (in vivo), the “Observed (C) vs. Additive Ratio” value is recorded as “higher than expected”. Also, the “3. Combined 1 + 2 [Estimated]” value in series [2] (plasma LD, sum of normalized Treatment A and Treatment B AUCs, individual subjects) was 3087.

Consider `C[C@@](Cc1ccc(O)c(O)c1)(NN)C(=O)O` [CD, carbidopa], for which the “dose proportionality of PK parameters (AUC, Cmax, C15, C24)” value in series [1] was “demonstrated dose proportionality”. In addition, in series [2] (in vivo), the “1. Treatment A AUC (0-8) × 0.853*” value is given as 900. Besides, the AUC(0-t) in series [2] (in vivo, plasma CD, formulation A 153.6/19.2 LD/CD SC infusion over 8 h + oral IR LD/CD 100/25 mg tablet at 4 h, individual subjects, read-out: 4. Treatment C AUC (0-8) [Observed]) came to 1050 ng·h/mL; in series [2] (in vivo, plasma CD, formulation A 180/22.5 mg LD/CD SC infusion over 8 h, AUC multiplied by 0.853, individual subjects, read-out: 1. Treatment A AUC (0-8) × 0.853*), 942 ng·h/mL; in series [2] (in vivo, plasma CD, oral IR tablet 100/25 mg LD/CD at 0 h, individual subjects, read-out: 2. Treatment B AUC (0-4)), 322 ng·h/mL. Besides, the “Observed (C) vs. Additive Ratio” value in series [2] (in vivo) is listed as “lower than expected”. Moreover, in series [3], the “dose proportionality of carbidopa Cmax” value is listed as “clear dose proportionality”.
